Each molecule was assayed on HCV Con1 subgenomic replicon in Huh-7 cells (NK/luc-ubi-neo) (assay: HCV replicon assay (luciferase reporter)). Conditions: anti-HCV activity, class symbols; read-out: Range of EC50 in HCV replicon assay.
Assay type: cell-based
Procedure: A human hepatoma cell line (Huh-7) containing replicating HCV Con1 subgenomic replicon with a luciferase reporter gene (luc-ubi-neo) was used to evaluate anti-HCV activity of the compounds. In this assay, the level of luciferase signal correlates directly with the viral RNA replication. The HCV replicon-reporter cell line (NK/luc-ubi-neo) was cultured in DMEM medium supplemented with 10% fetal bovine serum and 0.5 mg/ml Geneticin (G418). Cells were maintained in a subconfluent state to ensure high levels of HCV replicon RNA synthesis.
To evaluate the antiviral activity of compounds, serial dilutions were prepared with concentrations ranging from 0.14 to 300 μM. Diluted compounds were transferred to a 96-well plate followed by the addition of replicon cells (6000 cells per well). Cells were incubated with the compounds for 48 hours after which luciferase activity was measured.

| SMILES | EC50 [µM] |
| --- | --- |
| N#Cc1c(Nc2ccccc2Cl)s[nH]c1=O | 10 to 50 |
| N#Cc1c(NCC2CCCO2)s[nH]c1=O (stereo not drawn) | > 50 |
| N#Cc1c(NCC2CCCCC2)s[nH]c1=O | 1 to 10 |
| N#Cc1c(Nc2ccccc2C(F)(F)F)s[nH]c1=O | 10 to 50 |
| N#Cc1c(Nc2ccc(Br)c(F)c2)s[nH]c1=O | < 1 |
| COC(=O)c1ccc(Nc2s[nH]c(=O)c2C#N)cc1 | 10 to 50 |
| N#Cc1c(Nc2ccc(I)cc2Cl)s[nH]c1=O | 1 to 10 |
| N#Cc1c(Nc2ccnc(Cl)c2)s[nH]c1=O | 10 to 50 |
| N#Cc1c(Nc2ccc(Br)nc2)s[nH]c1=O | 10 to 50 |
| CC(C)c1ccccc1Nc1s[nH]c(=O)c1C#N | > 50 |
| N#Cc1c(Nc2ccc(Cc3ccccc3)cc2)s[nH]c1=O | > 50 |
| N#Cc1c(NC23CC4CC(CC(C4)C2)C3)s[nH]c1=O | 1 to 10 |
| Cc1cccc(C)c1Sc1ccc(Nc2s[nH]c(=O)c2C#N)cc1 | 1 to 10 |
| N#Cc1c(Nc2ccc(S(=O)(=O)Nc3ccccc3)cc2)s[nH]c1=O | > 50 |
| N#Cc1c(Nc2cc(Cl)nc(Cl)c2)s[nH]c1=O | 1 to 10 |
| N#Cc1c(Nc2cc(F)c(Br)c(F)c2)s[nH]c1=O | < 1 |
| CN(C)c1ccc(Nc2s[nH]c(=O)c2C#N)c2ccccc12 | > 50 |
| N#Cc1c(Nc2ccc(Br)c(Cl)c2)s[nH]c1=O | < 1 |
| N#Cc1c(Nc2ccc(Br)cn2)s[nH]c1=O | 10 to 50 |
| N#Cc1c(Nc2ccc(Cl)c(C(F)(F)F)c2)s[nH]c1=O [drawing 430] | 1 to 10 |

What follows are molecules tested on Huh-7 cells (assay: not given). Conditions: not given.
Source text: A Huh-7 cell line carrying a luciferase reporter gene (driven by a HIV LTR promoter) stably integrated into the chromosome was used to analyze the cytotoxic effect of the selected compounds. This cell line (LTR-luc) was maintained in DMEM medium with 10% FBS. Design of the cytotoxicity assay was similar to that of the HCV replicon assay.

| SMILES | CC50 [µM] |
| --- | --- |
| N#Cc1c(Nc2ccccc2Cl)s[nH]c1=O | > 50 |
| N#Cc1c(NCC2CCCO2)s[nH]c1=O (stereo not drawn) | > 50 |
| N#Cc1c(NCC2CCCCC2)s[nH]c1=O | > 50 |
| N#Cc1c(Nc2ccccc2C(F)(F)F)s[nH]c1=O | > 50 |
| N#Cc1c(Nc2ccnc(Cl)c2)s[nH]c1=O | > 50 |
| N#Cc1c(Nc2ccc(Br)nc2)s[nH]c1=O | > 50 |
| CC(C)c1ccccc1Nc1s[nH]c(=O)c1C#N | > 50 |
| N#Cc1c(Nc2ccc(Cc3ccccc3)cc2)s[nH]c1=O | > 50 |
| N#Cc1c(NC23CC4CC(CC(C4)C2)C3)s[nH]c1=O | > 50 |
| N#Cc1c(Nc2ccc(S(=O)(=O)Nc3ccccc3)cc2)s[nH]c1=O | > 50 |
| N#Cc1c(Nc2ccc(Br)c(Cl)c2)s[nH]c1=O | > 50 |
| N#Cc1c(Nc2ccc(Cl)c(C(F)(F)F)c2)s[nH]c1=O [drawing 430] | > 50 |

Same assay, conditions: read-out: Range of CC50 in cytotoxicity assay; cytotoxicity, class symbols

| SMILES | CC50 [µM] |
| --- | --- |
| N#Cc1c(Nc2ccc(Br)c(F)c2)s[nH]c1=O | > 50 |
| COC(=O)c1ccc(Nc2s[nH]c(=O)c2C#N)cc1 | > 50 |
| N#Cc1c(Nc2ccc(I)cc2Cl)s[nH]c1=O | < 50 |
| Cc1cccc(C)c1Sc1ccc(Nc2s[nH]c(=O)c2C#N)cc1 | < 50 |
| N#Cc1c(Nc2cc(Cl)nc(Cl)c2)s[nH]c1=O | < 50 |
| N#Cc1c(Nc2cc(F)c(Br)c(F)c2)s[nH]c1=O | > 50 |
| CN(C)c1ccc(Nc2s[nH]c(=O)c2C#N)c2ccccc12 | > 50 |
| N#Cc1c(Nc2ccc(Br)cn2)s[nH]c1=O | > 50 |

The molecules below were run against T1, HCV replicase complexes (Hepatitis C virus genotype 1b, UniProt Q9WMX2) (assay: In vitro HCV replicase complex assay). Conditions: crude membrane fraction of I389/NS3-3 replicon cells.
T1 construct: viral non-structural proteins (NS3, NS4A, NS4B, NS5A and NS5B); expressed in transfected cells; host or cells: HCV subgenomic replicon cell line (I389/NS3-3)
Assay type: biochemical
Procedure: Crude membrane fraction containing the replicase complexes (RC) was isolated from the HCV subgenomic replicon cell line (I389/NS3-3) (Lohmann et al., Science 285:110-113, 1999) through Dounce homogenization and high-speed centrifugation (Lai et al., J. Virol. 73:2295-2300). Standard assay mixtures contained 50 mM HEPES (pH 7.3), 10 mM KCl, 10 mM MgCl2, 20 units of ribonuclease inhibitor, 10 μg/ml actinomycin D, 0.5 mM of ATP, GTP, CTP, 10 μCi of [α-^33P] UTP and 0.5 μl of the membrane fraction in a total volume of 20 μl. To determine the inhibitory effect of compounds on the HCV replicase complexes, pre-incubation of the RC membrane fraction with tested compounds was performed in a reaction mixture at 4° C. for 15 minutes. The reaction was then initiated by the addition of the radiolabeled UTP and cold nucleotides and incubated at 30° C. for 1 hour. Products were extracted with phenol/chloroform, precipitated with ethanol, and separated on a 1% agarose gel. After electrophoresis, the gel was dried prior to autoradiography. Radioactivity incorporated into viral RNA was quantitated by using a Phosphorimager (Amersham Biosciences Corp., Piscataway, N.J.) and was used to determine the IC50 value. A number of the exemplary compounds were potent inhibitors that blocked viral RNA synthesis catalyzed by HCV replicase complexes, with IC50 values in the nM range (Table 2).

T1 sequence (Q9WMX2 2420-3010, one chain of several): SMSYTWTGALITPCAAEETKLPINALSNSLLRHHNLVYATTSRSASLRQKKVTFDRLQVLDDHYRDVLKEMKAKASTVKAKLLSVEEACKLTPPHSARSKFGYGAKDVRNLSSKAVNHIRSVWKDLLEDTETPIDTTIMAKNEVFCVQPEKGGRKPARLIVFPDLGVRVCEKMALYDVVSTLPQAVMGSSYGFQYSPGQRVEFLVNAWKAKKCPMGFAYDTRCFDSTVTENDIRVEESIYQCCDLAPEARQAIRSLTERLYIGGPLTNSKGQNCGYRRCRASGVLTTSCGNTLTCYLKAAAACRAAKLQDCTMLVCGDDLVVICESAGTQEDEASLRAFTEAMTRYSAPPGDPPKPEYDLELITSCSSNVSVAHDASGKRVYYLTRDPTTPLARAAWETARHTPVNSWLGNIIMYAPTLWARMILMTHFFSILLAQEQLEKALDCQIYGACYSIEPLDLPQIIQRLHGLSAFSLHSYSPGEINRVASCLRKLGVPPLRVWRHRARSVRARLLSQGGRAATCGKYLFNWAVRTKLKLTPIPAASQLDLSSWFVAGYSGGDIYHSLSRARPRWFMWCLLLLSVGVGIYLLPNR

| SMILES | IC50 [µM] |
| --- | --- |
| N#Cc1c(Nc2ccc(Cl)c(C(F)(F)F)c2)s[nH]c1=O [drawing 483] | 0.05 to 0.1 |
| N#Cc1c(O)nsc1Nc1cc(Cl)cc(Cl)c1 | < 0.05 |
| N#Cc1c(O)nsc1Nc1ccc(Cl)cc1 | 0.05 to 0.1 |
| N#Cc1c(Nc2ccc(Br)cc2)s[nH]c1=O | < 0.05 |
| N#Cc1c(O)nsc1Nc1cc(C(F)(F)F)cc(C(F)(F)F)c1 | 0.1 to 0.25 |

The molecules below were run on parental replicon cells (I389/NS3-3) (assay: Sensitivity of parental (wild-type) replicon cells, HCV replicon RNA by quantitative RT-PCR). Conditions: Hepatitis C virus; Wild-type replicon cell line; HCV replicon RNA by RT-PCR, 72 hours of treatment.
Assay type: cell-based
Procedure: (§1) A replicon-containing cell line (I389/NS3-3) was used to select the resistant replicons against Compound 1 (Lohmann et al., Science 285:110-113, 1999). Replicon cells were plated in a 100 mm dish, under a subconfluent condition (approximately at 40% confluency). After 24 hours, Compound 1 was added to the cells with the final concentration of 2 μM in the medium containing 1 mg of G418 per ml. After 3 weeks, colonies of cells resistant to Compound 1 were isolated and expanded. Three independent cell lines (w1, w3 and w4) with growth rate similar to that of the parental replicon cells were selected to test for their sensitivity to Compound 1.
(§2) To confirm that viral RNAs in the selected cell lines were resistant to Compound 1, the cells were treated with the compound with concentrations from 0.05 to 5 μM. After 72-hours of treatment, cells were lysed and the cell lysates were diluted with RNase-free water, from which 5 μl was used to quantify the HCV replicon RNA by using real-time quantitative reverse transcriptase (RT) PCR assay (Cheney et al., Virology 297:298-306, 2002). Same quantitative RT-PCR protocol was used to determine the level of the cellular glyceraldhehyde-3-phosphate dehydrogenase (GAPDH) RNA in the same cell lysate, which served as an internal control to normalize the difference of total RNAs. To calculate the EC50 values of Compound 1 against the resistant cell lines, the relative cycle threshold (CT) for the HCV and GAPDH was determined. […] Identification of the Molecular Target

| SMILES | EC50 [µM] |
| --- | --- |
| C[C@@]1(O)[C@H](O)[C@@H](CO)O[C@H]1n1cnc2c(N)ncnc21 [2′-C-methyl-adenosine] | 0.36 |
| N#Cc1c(Nc2cc(Cl)cc(Cl)c2)s[nH]c1=O [Compound 1] | 0.07 |

Same assay, conditions: Wild-type replicon cell line; fold of EC50

| SMILES | Fold over wild-type |
| --- | --- |
| C[C@@]1(O)[C@H](O)[C@@H](CO)O[C@H]1n1cnc2c(N)ncnc21 [2′-C-methyl-adenosine] | 1 |
| N#Cc1c(Nc2cc(Cl)cc(Cl)c2)s[nH]c1=O [Compound 1] | 1 |

The molecules below were run on resistant replicon cell lines (w1, w3 and w4) (assay: Sensitivity of resistant replicon cell lines, HCV replicon RNA by quantitative RT-PCR). Conditions: Hepatitis C virus, 72 h, resistant cell line W1; HCV replicon RNA by RT-PCR, 72 hours of treatment.
Assay type: cell-based
Procedure: as §1, §2

| SMILES | EC50 [µM] |
| --- | --- |
| C[C@@]1(O)[C@H](O)[C@@H](CO)O[C@H]1n1cnc2c(N)ncnc21 [2′-C-methyl-adenosine] | 0.16 |
| N#Cc1c(Nc2cc(Cl)cc(Cl)c2)s[nH]c1=O [Compound 1] | 3.68 |

Same assay, conditions: Hepatitis C virus, 72 h, resistant cell line W3; HCV replicon RNA by RT-PCR, 72 hours of treatment

| SMILES | EC50 [µM] |
| --- | --- |
| C[C@@]1(O)[C@H](O)[C@@H](CO)O[C@H]1n1cnc2c(N)ncnc21 [2′-C-methyl-adenosine] | 0.26 |
| N#Cc1c(Nc2cc(Cl)cc(Cl)c2)s[nH]c1=O [Compound 1] | 2.03 |

Same assay, conditions: Hepatitis C virus, 72 h, resistant cell line W4; HCV replicon RNA by RT-PCR, 72 hours of treatment

| SMILES | EC50 [µM] |
| --- | --- |
| C[C@@]1(O)[C@H](O)[C@@H](CO)O[C@H]1n1cnc2c(N)ncnc21 [2′-C-methyl-adenosine] | 0.31 |
| N#Cc1c(Nc2cc(Cl)cc(Cl)c2)s[nH]c1=O [Compound 1] | 4.62 |

Same assay, conditions: cell lines w1, w3, w4 selected with Compound 1

| SMILES | sensitivity of resistant cell lines to inhibition |
| --- | --- |
| C[C@@]1(O)[C@H](O)[C@@H](CO)O[C@H]1n1cnc2c(N)ncnc21 [2′-C-methyl-adenosine] | still sensitive to inhibition |

Same assay, conditions: resistant cell line W1; fold of EC50

| SMILES | Fold over wild-type |
| --- | --- |
| C[C@@]1(O)[C@H](O)[C@@H](CO)O[C@H]1n1cnc2c(N)ncnc21 [2′-C-methyl-adenosine] | 0.4 |
| N#Cc1c(Nc2cc(Cl)cc(Cl)c2)s[nH]c1=O [Compound 1] | 52 |

Same assay, conditions: resistant cell line W3; fold of EC50

| SMILES | Fold over wild-type |
| --- | --- |
| C[C@@]1(O)[C@H](O)[C@@H](CO)O[C@H]1n1cnc2c(N)ncnc21 [2′-C-methyl-adenosine] | 0.7 |
| N#Cc1c(Nc2cc(Cl)cc(Cl)c2)s[nH]c1=O [Compound 1] | 29 |

Same assay, conditions: resistant cell line W4; fold of EC50

| SMILES | Fold over wild-type |
| --- | --- |
| C[C@@]1(O)[C@H](O)[C@@H](CO)O[C@H]1n1cnc2c(N)ncnc21 [2′-C-methyl-adenosine] | 0.9 |
| N#Cc1c(Nc2cc(Cl)cc(Cl)c2)s[nH]c1=O [Compound 1] | 66 |

These molecules were tested against T2, NS5B polymerase (Hepatitis C virus genotype 1b, UniProt Q9WMX2, C2735Y) (assay: Identification of the molecular target (sequencing of resistant replicons)). Conditions: eight cDNA clones of three resistant cell lines (w1, w3 and w4).
T2 construct: a single nucleotide change in the region of viral NS5B polymerase; expressed in transfected cells; host or cells: HCV subgenomic replicon cells (parental and Compound 1-resistant lines w1, w3, w4)
Set-up: species or system HCV
Procedure: To determine the targeted viral gene of Compound 1, total RNA was isolated from the resistant cell lines and from the parental replicon cells. The cDNA fragment encoding the HCV nonstructural proteins (NS3-NS5B) was amplified from the total cellular RNA by using a Thermoscript RT-PCR kit (Invitrogen). The cDNA fragments were cloned into pCR4-TOPO vector by using a TOPO TA cloning kit (Invitrogen). The entire DNA sequence of the HCV nonstructural coding region was determined for multiple independent cDNA clones.
Eight different cDNA clones were generated from three independently cell lines selected by Compound 1 (cell lines w1, w3 and w4) and three cDNA clones from the parental cell line.

T2 sequence (Q9WMX2 2420-3010 C2735Y): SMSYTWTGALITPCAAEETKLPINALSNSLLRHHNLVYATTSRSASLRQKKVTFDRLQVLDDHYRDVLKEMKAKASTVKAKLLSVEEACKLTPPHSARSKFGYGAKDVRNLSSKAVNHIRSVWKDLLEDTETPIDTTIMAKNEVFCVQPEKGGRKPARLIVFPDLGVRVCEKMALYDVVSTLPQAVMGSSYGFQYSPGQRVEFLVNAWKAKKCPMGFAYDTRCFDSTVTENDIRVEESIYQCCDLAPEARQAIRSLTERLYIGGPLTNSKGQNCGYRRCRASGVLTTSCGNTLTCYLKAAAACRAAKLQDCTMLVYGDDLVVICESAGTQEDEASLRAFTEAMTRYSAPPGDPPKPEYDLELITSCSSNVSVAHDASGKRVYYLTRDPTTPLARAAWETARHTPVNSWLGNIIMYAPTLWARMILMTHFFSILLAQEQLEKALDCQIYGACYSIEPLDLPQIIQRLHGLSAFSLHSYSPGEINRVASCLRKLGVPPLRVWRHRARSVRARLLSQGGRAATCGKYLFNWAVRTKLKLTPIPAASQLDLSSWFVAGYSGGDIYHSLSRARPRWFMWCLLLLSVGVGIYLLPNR

| SMILES | mutation present in cDNA clones of cell lines selected by the compound |
| --- | --- |
| N#Cc1c(Nc2cc(Cl)cc(Cl)c2)s[nH]c1=O [Compound 1] | cysteine at position 316 of NS5B polymerase to a tyrosine residue |

— patent US20060217390A1, “Cycloalkl, aryl and heteroaryl amino isothiazoles for the treatment of Hepatitis C virus” (priority 2005, published 2006)
